Laboratory results reported in patent US11596647B2, “Administration of synergistic amounts of modified citrus pectin and honokiol to treat inflammation and anti-oxidant needs” (ECONUGENICS INC, priority 2016, dated 2023).

Test: Antioxidant activity, ABTS microplate assay (Trolox standard)
Assay type: biochemical
Details: FIG. 3; result in words
Source text: Since antioxidants neutralize the ROS, antioxidant activity of the nutraceutical would be of importance for product development. The principle underlying the antioxidant assay is formation of a ferryl myoglobin radical from metmyoglobin and hydrogen peroxide, which oxidizes ABTS (2,2′-azino-bis(3-ethylbenzthiazoline-6-sulfonic acid) to produce radical cation, ABTS+, a soluble chromogen that is green in color and can be determined spectrophotometrically at 405 nm. Antioxidants suppress the production of the radical cation in a concentration dependent manner and the color intensity decreases proportionally. Trolox, a water soluble vitamin E analog, is used as a control antioxidant for analyzing the antioxidant activity of other nutraceuticals/compounds. Microplate assay was used for the analysis of antioxidant activity with different products according to the procedure described in the Antioxidant assay kit (Sigma-Aldrich, St. Louis, Mo.). The relative antioxidant concentration (mM equivalent of Trolox standard) was calculated from the absorbance readings.

For C=CCc1ccc(O)c(-c2ccc(O)c(CC=C)c2)c1 [H, honokiol], the “antioxidant activity (relative ranking)” value was “least anti-oxidant activity”.
